In PMC7604414, “Favipiravir at high doses has potent antiviral activity in SARS-CoV-2−infected hamsters, whereas hydroxychloroquine lacks activity” (Proceedings of the National Academy of Sciences of the …, 2020):

Key:
SARS-CoV-2 [1] = system: SARS-CoV-2; set-up: method as in PMID 33741945; settings: upon favipiravir treatment; cited from earlier work
SARS-CoV-2 [2] = system: SARS-CoV-2; set-up: species or system Syrian hamsters; settings: hamster, in vivo

In the case of NC(=O)c1nc(F)c[nH]c1=O [favipiravir], the “increase of mean number of mutations in the viral RNA, factor” value (SARS-CoV-2 [1]) is listed as “more than three” and the “increase in mean virus variants vs untreated hamsters” value (SARS-CoV-2 [2]) is listed as 3.2 fold.
